Measurements: article PMC5872235 (2018)
In brackets after ≈: the same amount, converted by molar mass. Several values for one entry are separate records, joined by “and”; a condition that tells them apart may be missing. Equal entries are not always repeated. Where two headings read alike, the source gives them in different places. Peptide text beside a SMILES is read from it.

Legend:
[1] = test system: Staphylococcus aureus strains isolated from control group; test: microbe, parasite or virus in culture; conditions: 18 h
[2] = test system: Staphylococcus aureus strains isolated from control group
[3] = test system: Staphylococcus aureus strains isolated from atopic dermatitis (AD) patients; test: microbe, parasite or virus in culture; conditions: 18 h
[4] = test system: S. aureus in control group; type: cell-based, Staphylococcus aureus
[5] = test system: Superantigen negative Staphylococcus aureus (n = 48); test: microbe, parasite or virus in culture; conditions: 18 h
[6] = test system: S. aureus in patients with atopic dermatitis; type: cell-based, Staphylococcus aureus
[7] = test system: Superantigen positive Staphylococcus aureus (n = 52); test: microbe, parasite or virus in culture; conditions: 18 h
[8] = test system: Superantigen positive Staphylococcus aureus (n = 52)
[9] = test system: Superantigen negative Staphylococcus aureus (n = 48)
[10] = test system: Staphylococcus aureus strains isolated from atopic dermatitis (AD) patients
[11] = test system: vancomycin intermediate S. aureus (VISA) isolates; conditions: cited from earlier work
[12] = test system: S. aureus isolates; conditions: cited from earlier work
[13] = Superantigen positive (n = 52, 18 h)
[14] = Superantigen negative (n = 48, 18 h)
[15] = strains isolated from control group, 18 h
[16] = strains isolated from atopic dermatitis (AD) patients, 18 h

SMILES	MIC50 [1]	MIC90 [1]	MIC Range [2]	MIC50 [3]	MIC90 [3]	MIC50 [5]	MIC90 [5]	Resistance (%), resistant strains [6]	MIC50 [7]	MIC90 [7]	MIC50 [8, 13]	MIC90 [8, 13]	MIC Range [8, 13]	MIC50 [9, 14]	MIC90 [9, 14]	MIC Range [9, 14]	MIC Range [10]	MIC Range [8]	MIC Range [9]	also measured
CC1(C)S[C@@H]2[C@H](NC(=O)[C@H](N)c3ccccc3)C(=O)N2[C@H]1C(=O)O [Ampicillin, ampicillin]	16 mg/L (≈ 45.8 µM)	32 mg/L (≈ 91.6 µM)	0.25 to 32 mg/L	2 mg/L (≈ 5.72 µM)	16 mg/L (≈ 45.8 µM)	8 mg/L (≈ 22.9 µM)	16 mg/L (≈ 45.8 µM)	58.5%	1 mg/L (≈ 2.86 µM)	8 mg/L (≈ 22.9 µM)	–	–	–	–	–	–	–	–	–	Resistance (%), resistant strains [4]: 4%
CC[C@H](C)[C@H](NC(=O)[C@H](CCCCN)NC(=O)[C@H](CCCCN)NC(=O)[C@H](Cc1ccccc1)NC(=O)[C@H](CC(C)C)NC(=O)[C@H](CCCCN)NC(=O)[C@H](Cc1c[nH]c2ccccc12)NC(=O)[C@@H](N)CCCCN)C(=O)NCC(=O)N[C@@H](C)C(=O)N[C@H](C(=O)N[C@@H](CC(C)C)C(=O)N[C@@H](CCCCN)C(=O)N[C@H](C(=O)N[C@@H](CC(C)C)C(N)=O)C(C)C)C(C)C [CAMEL] (H-KWKLFKKIGAVLKVL-NH2)	–	–	–	–	–	–	–	–	–	–	4 mg/L (≈ 2.26 µM)	8 mg/L (≈ 4.52 µM)	1 to 8 mg/L	4 mg/L (≈ 2.26 µM)	4 mg/L (≈ 2.26 µM)	2 to 128 mg/L	–	–	–	–
CC[C@H](C)[C@H](NC(=O)[C@@H](NC(=O)[C@H](CO)NC(=O)[C@H](C)NC(=O)[C@@H](NC(=O)[C@H](CCCCN)NC(=O)[C@H](CCCCN)NC(=O)[C@@H](NC(=O)[C@@H](NC(=O)[C@H](CC(=O)O)NC(=O)[C@H](Cc1ccccc1)NC(=O)[C@H](CC(C)C)NC(=O)CN)C(C)C)[C@@H](C)CC)C(C)C)C(C)C)C(=O)NCC(=O)NCC(=O)N[C@@H](CC(C)C)C(N)=O [Citropin 1.1] (H-GLFDVIKKVASVIGGL-NH2)	–	–	–	–	–	–	–	–	–	–	16 mg/L (≈ 9.91 µM)	16 mg/L (≈ 9.91 µM)	1 to 64 mg/L	16 mg/L (≈ 9.91 µM)	32 mg/L (≈ 19.8 µM)	1 to 128 mg/L	–	–	–	–
CCCCCCCCCC(=O)N[C@@H](Cc1c[nH]c2ccccc12)C(=O)N[C@H](CC(N)=O)C(=O)N[C@@H](CC(=O)O)C(=O)N[C@@H]1C(=O)NCC(=O)N[C@@H](CCCN)C(=O)N[C@@H](CC(=O)O)C(=O)N[C@H](C)C(=O)N[C@@H](CC(=O)O)C(=O)NCC(=O)N[C@H](CO)C(=O)N[C@@H]([C@H](C)CC(=O)O)C(=O)N[C@@H](CC(=O)c2ccccc2N)C(=O)O[C@@H]1C [Daptomycin, daptomycin]	–	–	–	–	–	–	–	54.7%	–	–	2 mg/L (≈ 1.23 µM)	2 mg/L (≈ 1.23 µM)	0.125 to 4 mg/L	2 mg/L (≈ 1.23 µM)	4 mg/L (≈ 2.47 µM)	0.0625 to 4 mg/L	–	–	–	MIC50 [2, 15]: 2 mg/L (≈ 1.23 µM); MIC90 [2, 15]: 2 mg/L (≈ 1.23 µM); MIC Range [2, 15]: 1 to 2 mg/L; MIC50 [10, 16]: 2 mg/L (≈ 1.23 µM); MIC90 [10, 16]: 4 mg/L (≈ 2.47 µM); MIC Range [10, 16]: 0.125 to 4 mg/L; Resistance (%), resistant strains [4]: 4%; MIC [11]: 4 mg/L (≈ 2.47 µM); minimum inhibitory concentration (MIC) [11]: 2 mg/L (≈ 1.23 µM)
CC[C@H]1OC(=O)[C@H](C)[C@@H](O[C@H]2C[C@@](C)(OC)[C@@H](O)[C@H](C)O2)[C@H](C)[C@@H](O[C@@H]2O[C@H](C)C[C@H](N(C)C)[C@H]2O)[C@](C)(O)C[C@@H](C)C(=O)[C@H](C)[C@@H](O)[C@]1(C)O [Erythromycin, erythromycin]	1 mg/L (≈ 1.36 µM)	> 512 mg/L	–	0.5 mg/L (≈ 0.681 µM)	> 512 mg/L	0.5 mg/L (≈ 0.681 µM)	256 mg/L (≈ 349 µM)	–	0.5 mg/L (≈ 0.681 µM)	> 512 mg/L	–	–	–	–	–	–	–	–	–	rate of resistance [12]: 14% and 18%
CC(=O)O[C@H]1C[C@@]2(C)[C@@H](C[C@@H](O)[C@H]3[C@@]4(C)CC[C@@H](O)[C@@H](C)[C@@H]4CC[C@@]32C)/C1=C(\CCC=C(C)C)C(=O)O [Fusidic acid, fusidic acid]	1 mg/L (≈ 1.94 µM)	16 mg/L (≈ 31 µM)	0.125 to 16 mg/L	0.125 mg/L (≈ 0.242 µM)	8 mg/L (≈ 15.5 µM)	0.125 mg/L (≈ 0.242 µM)	4 mg/L (≈ 7.74 µM)	15.5%	0.125 mg/L (≈ 0.242 µM)	8 mg/L (≈ 15.5 µM)	–	–	–	–	–	–	0.312 to 32 mg/L	0.0625 to 32 mg/L	0.0312 to 32 mg/L	S. aureus isolates resistant [12]: 50%
CC[C@H](C)[C@H](NC(=O)[C@H](CCCCN)NC(=O)[C@H](CCC(=O)O)NC(=O)[C@H](CCCCN)NC(=O)[C@H](CO)NC(=O)[C@H](CCCCN)NC(=O)[C@H](CCCNC(=N)N)NC(=O)[C@H](Cc1ccccc1)NC(=O)[C@H](Cc1ccccc1)NC(=O)[C@H](CC(=O)O)NC(=O)CNC(=O)[C@H](CC(C)C)NC(=O)[C@@H](N)CC(C)C)C(=O)NCC(=O)N[C@@H](CCCCN)C(=O)N[C@@H](CCC(=O)O)C(=O)N[C@@H](Cc1ccccc1)C(=O)N[C@@H](CCCCN)C(=O)N[C@@H](CCCNC(=N)N)C(=O)N[C@H](C(=O)N[C@H](C(=O)N[C@@H](CCC(N)=O)C(=O)N[C@@H](CCCNC(=N)N)C(=O)N[C@H](C(=O)N[C@@H](CCCCN)C(=O)N[C@@H](CC(=O)O)C(=O)N[C@@H](Cc1ccccc1)C(=O)N[C@@H](CC(C)C)C(=O)N[C@@H](CCCNC(=N)N)C(=O)N[C@@H](CC(N)=O)C(=O)N[C@@H](CC(C)C)C(=O)N[C@H](C(=O)N1CCC[C@H]1C(=O)N[C@@H](CCCNC(=N)N)C(=O)N[C@H](C(=O)N[C@@H](CCC(=O)O)C(=O)N[C@@H](CO)C(=O)O)[C@@H](C)O)C(C)C)[C@@H](C)CC)C(C)C)[C@@H](C)CC [LL-37]	–	–	–	–	–	–	–	–	–	–	64 mg/L (≈ 14.2 µM)	256 mg/L (≈ 57 µM)	–	128 mg/L (≈ 28.5 µM)	> 512 mg/L	–	–	–	–	–
CCC[C@@H]1C[C@@H](C(=O)N[C@@H]([C@H]2O[C@H](SC)[C@H](O)[C@@H](O)[C@H]2O)[C@@H](C)O)N(C)C1 [Lincomycin, lincomycin]	0.5 mg/L (≈ 1.23 µM)	> 512 mg/L	–	1 mg/L (≈ 2.46 µM)	64 mg/L (≈ 157 µM)	1 mg/L (≈ 2.46 µM)	64 mg/L (≈ 157 µM)	37.5%	1 mg/L (≈ 2.46 µM)	16 mg/L (≈ 39.4 µM)	–	–	–	–	–	–	–	–	–	–
CC(=O)NC[C@H]1CN(c2ccc(N3CCOCC3)c(F)c2)C(=O)O1 [Linezolid, linezolid]	2 mg/L (≈ 5.93 µM)	4 mg/L (≈ 11.9 µM)	1 to 4 mg/L	1 mg/L (≈ 2.96 µM)	4 mg/L (≈ 11.9 µM)	1 mg/L (≈ 2.96 µM)	4 mg/L (≈ 11.9 µM)	–	1 mg/L (≈ 2.96 µM)	2 mg/L (≈ 5.93 µM)	–	–	–	–	–	–	0.25 to 32 mg/L	0.5 to 4 mg/L	0.25 to 4 mg/L	Susceptibility of all strains, in words [4]: sensitive; Resistance of isolates, in words [6]: none of the isolates were resistant
C/C(=C\C(=O)OCCCCCCCCC(=O)O)C[C@@H]1OC[C@H](C[C@@H]2O[C@H]2[C@@H](C)[C@H](C)O)[C@@H](O)[C@H]1O [Mupirocin, mupirocin]	0.25 mg/L (≈ 0.499 µM)	32 mg/L (≈ 63.9 µM)	0.125 to 32 mg/L	0.5 mg/L (≈ 0.999 µM)	> 512 mg/L	0.25 mg/L (≈ 0.499 µM)	512 mg/L (≈ 1020 µM)	17.5%	0.5 mg/L (≈ 0.999 µM)	> 512 mg/L	–	–	–	–	–	–	–	–	–	Susceptibility of all strains, in words [4]: sensitive
CC[C@H](C)[C@H](NC(=O)CNC(=O)[C@H](CO)NC(=O)[C@H](CC(C)C)NC(=O)[C@@H](NC(=O)[C@H](CCCNC(=N)N)NC(=O)CNC(=O)[C@@H](NC(=O)[C@H](CC(C)C)NC(=O)[C@@H]1CCCN1C(=O)[C@H](CC(C)C)NC(=O)[C@@H](N)Cc1ccccc1)[C@@H](C)CC)C(C)C)C(=O)N[C@@H](CC(C)C)C(N)=O [Temporin A] (H-FLPLIGRVLSGIL-NH2)	–	–	–	–	–	–	–	–	–	–	8 mg/L (≈ 5.73 µM)	16 mg/L (≈ 11.5 µM)	2 to 64 mg/L	8 mg/L (≈ 5.73 µM)	32 mg/L (≈ 22.9 µM)	4 to 32 mg/L	–	–	–	–
CN(C)[C@@H]1C(O)=C(C(N)=O)C(=O)[C@@]2(O)C(O)=C3C(=O)c4c(O)cccc4[C@@](C)(O)[C@H]3C[C@@H]12 [Tetracycline, tetracycline]	0.5 mg/L (≈ 1.13 µM)	32 mg/L (≈ 72 µM)	0.125 to 32 mg/L	0.5 mg/L (≈ 1.13 µM)	32 mg/L (≈ 72 µM)	0.5 mg/L (≈ 1.13 µM)	32 mg/L (≈ 72 µM)	15.5%	0.25 mg/L (≈ 0.563 µM)	32 mg/L (≈ 72 µM)	–	–	–	–	–	–	0.125 to 64 mg/L	0.0625 to 32 mg/L	0.0625 to 32 mg/L	–
CN[C@H](CC(C)C)C(=O)N[C@H]1C(=O)N[C@@H](CC(N)=O)C(=O)N[C@H]2C(=O)N[C@H]3C(=O)N[C@H](C(=O)N[C@H](C(=O)O)c4cc(O)cc(O)c4-c4cc3ccc4O)[C@H](O)c3ccc(c(Cl)c3)Oc3cc2cc(c3O[C@@H]2O[C@H](CO)[C@@H](O)[C@H](O)[C@H]2O[C@H]2C[C@](C)(N)[C@H](O)[C@H](C)O2)Oc2ccc(cc2Cl)[C@H]1O [Vancomycin, vancomycin]	1 mg/L (≈ 0.69 µM)	1 mg/L (≈ 0.69 µM)	0.25 to 1 mg/L	0.5 mg/L (≈ 0.345 µM)	2 mg/L (≈ 1.38 µM)	1 mg/L (≈ 0.69 µM)	2 mg/L (≈ 1.38 µM)	–	0.5 mg/L (≈ 0.345 µM)	1 mg/L (≈ 0.69 µM)	–	–	–	–	–	–	0.125 to 8 mg/L	0.125 to 2 mg/L	0.125 to 2 mg/L	Susceptibility of all strains, in words [4]: sensitive; Resistance of isolates, in words [6]: none of the isolates were resistant
